Tests used:
Assay in all cases: relative viability (nuclei count vs DMSO), 5 days (fraction); higher = more cells survive
SW 1573 = test system: SW 1573
Summary of the method: (§1)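 For relative viability, nuclei counts in treated wells were divided by those in vehicle wells. Lung cancer cell lines had been pin-tool dosed in 1536-well plates the day after seeding and cultured for 5 days, then fixed and stained in one step (final 0.05% Triton X-100, 1% formaldehyde, 1 ug/ml Hoechst) and imaged at 4×. Doses were one drug alone or a fixed anchor-drug dose plus five library-drug doses (not always all listed) in √10 steps, and values are duplicate-plate medians.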

NCI-H1734 = test system: NCI-H1734
Summary of the method: as §1

NCI-H522 = test system: NCI-H522
Summary of the method: as §1

NCI-H2342 = test system: NCI-H2342
Summary of the method: as §1

RERF-LC-KJ = test system: RERF-LC-KJ
Summary of the method: as §1

NCI-H2228 = test system: NCI-H2228
Summary of the method: as §1

NCI-H1915 = test system: NCI-H1915
Summary of the method: as §1

HOP-62 = test system: HOP-62
Summary of the method: as §1

PC-3 [JPC-3] = test system: PC-3 [JPC-3]
Summary of the method: as §1

HCC-78 = test system: HCC-78
Summary of the method: as §1

NCI-H1975 = test system: NCI-H1975
Summary of the method: as §1

NCI-H1792 = test system: NCI-H1792
Summary of the method: as §1

NCI-H1755 = test system: NCI-H1755
Summary of the method: as §1

NCI-H2126 = test system: NCI-H2126
Summary of the method: as §1

HCC-15 = test system: HCC-15
Summary of the method: as §1

NCI-H358 = test system: NCI-H358
Summary of the method: as §1

LXF-289 = test system: LXF-289
Summary of the method: as §1

NCI-H647 = test system: NCI-H647
Summary of the method: as §1

LC-2-ad = test system: LC-2-ad
Summary of the method: as §1

A-427 = test system: A-427
Summary of the method: as §1

SK-LU-1 = test system: SK-LU-1
Summary of the method: as §1

NCI-H2347 = test system: NCI-H2347
Summary of the method: as §1

`O=c1cc(N2CCOCC2)oc2c(-c3cccc4c3sc3ccccc34)cccc12` + CC(=O)c1c(C)c2cnc(Nc3ccc(N4CCNCC4)cn3)nc2n(C2CCCC2)c1=O [Palbociclib] (partner 0.5 µM) was tested, and the relative viability (SW 1573; first compound 0.01 µM) was 0.349, the relative viability (SW 1573; first compound 0.03162 µM) was 0.436 and the relative viability (SW 1573; first compound 0.1 µM) was 0.408. The relative viability (SW 1573; first compound 0.3162 µM) was 0.349, the relative viability (SW 1573; first compound 1 µM) was 0.394 and the relative viability (NCI-H1734; first compound 0.01 µM) was 0.324. The relative viability (NCI-H1734; first compound 0.03162 µM) was 0.342, the relative viability (NCI-H1734; first compound 0.1 µM) was 0.434 and the relative viability (NCI-H1734; first compound 0.3162 µM) was 0.352. The relative viability (NCI-H1734; first compound 1 µM) was 0.374, the relative viability (NCI-H522; first compound 0.01 µM) was 0.887 and the relative viability (NCI-H522; first compound 0.03162 µM) was 1.25. For the same molecule, the relative viability (NCI-H522; first compound 0.1 µM) was 0.831, the relative viability (NCI-H522; first compound 0.3162 µM) was 0.948 and the relative viability (NCI-H522; first compound 1 µM) was 0.977. It also gave a relative viability (NCI-H2342; first compound 0.01 µM) of 0.539, a relative viability (NCI-H2342; first compound 0.03162 µM) of 0.502 and a relative viability (NCI-H2342; first compound 0.1 µM) of 0.537. It also gave a relative viability (NCI-H2342; first compound 0.3162 µM) of 0.529, a relative viability (NCI-H2342; first compound 1 µM) of 0.508 and a relative viability (RERF-LC-KJ; first compound 0.01 µM) of 1.06. For the same molecule, the relative viability (RERF-LC-KJ; first compound 0.03162 µM) was 1.1, the relative viability (RERF-LC-KJ; first compound 0.1 µM) was 1.04 and the relative viability (RERF-LC-KJ; first compound 0.3162 µM) was 1.09. The relative viability (RERF-LC-KJ; first compound 1 µM) was 1.08, the relative viability (NCI-H2228; first compound 0.01 µM) was 0.943 and the relative viability (NCI-H2228; first compound 0.03162 µM) was 0.749. For the same molecule, the relative viability (NCI-H2228; first compound 0.1 µM) was 0.802, the relative viability (NCI-H2228; first compound 0.3162 µM) was 0.683 and the relative viability (NCI-H2228; first compound 1 µM) was 0.83. For the same molecule, the relative viability (NCI-H1915; first compound 0.01 µM) was 0.529, the relative viability (NCI-H1915; first compound 0.03162 µM) was 0.555 and the relative viability (NCI-H1915; first compound 0.1 µM) was 0.61. It also gave a relative viability (NCI-H1915; first compound 0.3162 µM) of 0.461, a relative viability (NCI-H1915; first compound 1 µM) of 0.526 and a relative viability (HOP-62; first compound 0.01 µM) of 0.452. For the same molecule, the relative viability (HOP-62; first compound 0.03162 µM) was 0.451, the relative viability (HOP-62; first compound 0.1 µM) was 0.451 and the relative viability (HOP-62; first compound 0.3162 µM) was 0.459. It also gave a relative viability (HOP-62; first compound 1 µM) of 0.415, a relative viability (PC-3 [JPC-3]; first compound 0.01 µM) of 0.548 and a relative viability (PC-3 [JPC-3]; first compound 0.03162 µM) of 0.519. For the same molecule, the relative viability (PC-3 [JPC-3]; first compound 0.1 µM) was 0.306, the relative viability (PC-3 [JPC-3]; first compound 0.3162 µM) was 0.557 and the relative viability (PC-3 [JPC-3]; first compound 1 µM) was 0.511. For the same molecule, the relative viability (HCC-78; first compound 0.01 µM) was 0.493, the relative viability (HCC-78; first compound 0.03162 µM) was 0.482 and the relative viability (HCC-78; first compound 0.1 µM) was 0.437. For the same molecule, the relative viability (HCC-78; first compound 0.3162 µM) was 0.5, the relative viability (HCC-78; first compound 1 µM) was 0.446 and the relative viability (NCI-H1975; first compound 0.01 µM) was 0.61. For the same molecule, the relative viability (NCI-H1975; first compound 0.03162 µM) was 0.609, the relative viability (NCI-H1975; first compound 0.1 µM) was 0.626 and the relative viability (NCI-H1975; first compound 0.3162 µM) was 0.529. It also gave a relative viability (NCI-H1975; first compound 1 µM) of 0.591, a relative viability (NCI-H1792; first compound 0.01 µM) of 0.641 and a relative viability (NCI-H1792; first compound 0.03162 µM) of 0.577. It also gave a relative viability (NCI-H1792; first compound 0.1 µM) of 0.658, a relative viability (NCI-H1792; first compound 0.3162 µM) of 0.668 and a relative viability (NCI-H1792; first compound 1 µM) of 0.683. The relative viability (NCI-H1755; first compound 0.01 µM) was 0.475, the relative viability (NCI-H1755; first compound 0.03162 µM) was 0.455 and the relative viability (NCI-H1755; first compound 0.1 µM) was 0.488. It also gave a relative viability (NCI-H1755; first compound 0.3162 µM) of 0.457, a relative viability (NCI-H1755; first compound 1 µM) of 0.456 and a relative viability (NCI-H2126; first compound 0.01 µM) of 0.349. The relative viability (NCI-H2126; first compound 0.03162 µM) was 0.339, the relative viability (NCI-H2126; first compound 0.1 µM) was 0.318 and the relative viability (NCI-H2126; first compound 0.3162 µM) was 0.331. It also gave a relative viability (NCI-H2126; first compound 1 µM) of 0.345, a relative viability (HCC-15; first compound 0.01 µM) of 0.73 and a relative viability (HCC-15; first compound 0.03162 µM) of 0.709. For the same molecule, the relative viability (HCC-15; first compound 0.1 µM) was 0.891, the relative viability (HCC-15; first compound 0.3162 µM) was 0.624 and the relative viability (HCC-15; first compound 1 µM) was 0.727. For the same molecule, the relative viability (NCI-H358; first compound 0.01 µM) was 0.163, the relative viability (NCI-H358; first compound 0.03162 µM) was 0.127 and the relative viability (NCI-H358; first compound 0.1 µM) was 0.132. For the same molecule, the relative viability (NCI-H358; first compound 0.3162 µM) was 0.133, the relative viability (NCI-H358; first compound 1 µM) was 0.126 and the relative viability (LXF-289; first compound 0.01 µM) was 0.631. The relative viability (LXF-289; first compound 0.03162 µM) was 0.59, the relative viability (LXF-289; first compound 0.1 µM) was 0.593 and the relative viability (LXF-289; first compound 0.3162 µM) was 0.583. For the same molecule, the relative viability (LXF-289; first compound 1 µM) was 0.595, the relative viability (NCI-H647; first compound 0.01 µM) was 0.392 and the relative viability (NCI-H647; first compound 0.03162 µM) was 0.409. The relative viability (NCI-H647; first compound 0.1 µM) was 0.387, the relative viability (NCI-H647; first compound 0.3162 µM) was 0.364 and the relative viability (NCI-H647; first compound 1 µM) was 0.314. For the same molecule, the relative viability (LC-2-ad; first compound 0.01 µM) was 0.504, the relative viability (LC-2-ad; first compound 0.03162 µM) was 0.5 and the relative viability (LC-2-ad; first compound 0.1 µM) was 0.572. The relative viability (LC-2-ad; first compound 0.3162 µM) was 0.493, the relative viability (LC-2-ad; first compound 1 µM) was 0.554 and the relative viability (A-427; first compound 0.01 µM) was 0.533. The relative viability (A-427; first compound 0.03162 µM) was 0.52, the relative viability (A-427; first compound 0.1 µM) was 0.528 and the relative viability (A-427; first compound 0.3162 µM) was 0.508. For the same molecule, the relative viability (A-427; first compound 1 µM) was 0.513, the relative viability (SK-LU-1; first compound 0.01 µM) was 0.473 and the relative viability (SK-LU-1; first compound 0.03162 µM) was 0.425. For the same molecule, the relative viability (SK-LU-1; first compound 0.1 µM) was 0.368, the relative viability (SK-LU-1; first compound 0.3162 µM) was 0.391 and the relative viability (SK-LU-1; first compound 1 µM) was 0.347. The relative viability (NCI-H2347; first compound 0.01 µM) was 0.365, the relative viability (NCI-H2347; first compound 0.03162 µM) was 0.414 and the relative viability (NCI-H2347; first compound 0.1 µM) was 0.445. It also gave a relative viability (NCI-H2347; first compound 0.3162 µM) of 0.424 and a relative viability (NCI-H2347; first compound 1 µM) of 0.39.
